Test results from patent US7498300B2, “CRFR1 selective ligands” (The Salk Institute for Biological Studies, priority 2001, dated 2009).

What was measured:
[1] = test system: cultured rat pituitary cells; assay: In vitro stimulation of ACTH and β-endorphin secretion by cultured rat pituitary cells; assay type: cell-based
Experimental: (§1) In vivo testing is carried out using the general procedure set forth in C.

human CRFR2 = target: T1, human CRFR2 (Homo sapiens, UniProt Q13324); assay: Competitive binding assay, CHO cells stably expressing human CRFR2, displacement of [125I-Tyr0]Ucn
T1 construct: expressed in transfected cells
T1 sequence (Q13324 1-411): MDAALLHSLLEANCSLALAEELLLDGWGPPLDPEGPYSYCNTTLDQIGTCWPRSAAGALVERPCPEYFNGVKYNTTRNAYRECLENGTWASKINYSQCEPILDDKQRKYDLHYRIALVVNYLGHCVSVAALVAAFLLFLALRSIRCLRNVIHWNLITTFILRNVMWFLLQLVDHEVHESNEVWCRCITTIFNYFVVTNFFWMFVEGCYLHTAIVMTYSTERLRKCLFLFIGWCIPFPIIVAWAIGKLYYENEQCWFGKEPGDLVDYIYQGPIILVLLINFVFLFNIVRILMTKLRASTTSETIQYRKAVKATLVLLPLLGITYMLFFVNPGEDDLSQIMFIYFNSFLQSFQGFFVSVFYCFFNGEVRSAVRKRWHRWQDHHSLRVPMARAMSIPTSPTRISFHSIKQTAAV
Experimental: The affinities of test peptides for CRFR1 and CRFR2 stably expressed in CHO cells were determined by competitive displacement of ^125I-(Nle^21, Tyr^32) ovine CRF (for CRFR1) or of [^125I-Tyr^o-]Ucn (for CRFR2) as described.

human CRFR1 = target: T2, human CRFR1 (Homo sapiens, UniProt P34998); assay: Competitive binding assay, CHO cells stably expressing human CRFR1, displacement of 125I-(Nle21,Tyr32) ovine CRF
T2 construct: expressed in transfected cells
T2 sequence (P34998 24-415): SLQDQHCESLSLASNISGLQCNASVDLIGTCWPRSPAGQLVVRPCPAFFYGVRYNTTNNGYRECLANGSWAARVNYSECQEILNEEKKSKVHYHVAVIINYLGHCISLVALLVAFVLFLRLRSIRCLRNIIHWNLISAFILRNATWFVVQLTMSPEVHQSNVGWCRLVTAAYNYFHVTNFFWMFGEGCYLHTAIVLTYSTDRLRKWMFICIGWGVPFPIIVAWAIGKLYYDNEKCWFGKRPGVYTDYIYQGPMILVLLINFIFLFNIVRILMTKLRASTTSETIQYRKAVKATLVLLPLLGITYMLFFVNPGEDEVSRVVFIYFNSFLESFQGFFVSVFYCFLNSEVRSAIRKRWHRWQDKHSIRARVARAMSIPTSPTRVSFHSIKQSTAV
Experimental: Binding affinity is a term used to refer to the strength of interaction between ligand and receptor. […] Ki (inhibitory binding affinity constant) is determined using a “standard” or “tracer” radioactive ligand and thus measures the displacement of the tracer from the receptor or binding protein; it is most properly expressed with reference to such tracer. However, so long as these assays are carefully performed under specific conditions with relatively low concentrations of receptor or the like, the calculated Ki will be substantially the same as its dissociation constant KD. […] It is particularly efficient to test for Ki because only a single tracer need be labelled, e.g. radioiodinated.
Binding assays with cells expressing human CRFR1 are carried out as described in the Chen et al. P.N.A.S., supra. The affinities of test peptides for CRFR1 and CRFR2 stably expressed in CHO cells were determined by competitive displacement of ^125I-(Nle^21, Tyr^32) ovine CRF (for CRFR1) or of [^125I-Tyr^o-]Ucn (for CRFR2) as described.

[2] = In vivo lowering of blood pressure on peripheral administration; conditions: administered peripherally
Experimental: as §1

CRFR2 = CRFR2 (Mus musculus, UniProt Q60748); conditions: Ruhmann et al., P.N.A.S. 95, 15264-15269 (1998); cited from earlier work
Chain of CRFR2 (Q60748 27-431 isoform Q60748-2 limits assumed): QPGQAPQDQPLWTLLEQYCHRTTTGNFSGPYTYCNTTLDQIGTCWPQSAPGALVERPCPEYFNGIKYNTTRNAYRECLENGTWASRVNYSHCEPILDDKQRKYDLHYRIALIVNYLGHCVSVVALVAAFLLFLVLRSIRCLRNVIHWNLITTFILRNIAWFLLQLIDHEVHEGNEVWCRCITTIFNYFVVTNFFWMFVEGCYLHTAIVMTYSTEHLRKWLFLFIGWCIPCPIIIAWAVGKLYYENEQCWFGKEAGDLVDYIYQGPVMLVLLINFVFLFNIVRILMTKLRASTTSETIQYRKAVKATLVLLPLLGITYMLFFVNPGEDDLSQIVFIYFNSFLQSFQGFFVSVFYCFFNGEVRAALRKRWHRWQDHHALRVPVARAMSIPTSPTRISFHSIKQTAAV

Substance	binding to CRFR2 (in words) (human CRFR2)	binding to CRFR1 (in words) (human CRFR1)	stimulation of the secretion of ACTH and β-END-LI [1]	lowering of blood pressure [2]	antagonism for CRFR2 compared with the previously best reported compound (CRFR2)
(cyclo 31-34)[Ac-Pro^4, D-Phe^12, Nle^21,38, CML^27, Glu^31, D-His^32, Lys^34]-r/hCRF(4-41) [Example 5 F]	only very weakly	binds strongly	stimulates	very significant lowering of blood pressure	
(cyclo 31-34)[Ac-Pro^4, D-Phe^12, Nle^21,38, CML^27, Glu^31, Lys^34]-r/hCRF(4-41) [Example 5 C]	only very weakly	binds strongly	stimulates	very significant lowering of blood pressure	
[D-Phe^11, His^12]-sauvagine(11-40)					close to equal antagonism

Second part, led by results:

binding to CRFR2 (in words) (human CRFR2)	binding to CRFR1 (in words) (human CRFR1)	Substance	stimulation of the secretion of ACTH and β-END-LI [1]	lowering of blood pressure [2]	antagonism for CRFR2 compared with the previously best reported compound (CRFR2)
only very weaker	bind strongly	(cyclo 31-34)[Ac-Pro^4, D-Phe^12, Nle^21,38, Glu^31, Aib^33, Lys^34]-r/hCRF(4-41) [Example 4]	strongly stimulates	very significant lowering of blood pressure	
only very weakly	binds strongly	(cyclo 31-34)[Ac-Pro^4, D-Phe^12, Nle^21,38, Glu^31, Lys^34, CML^37]-r/hCRF(4-41) [Example 5 D]	stimulates	very significant lowering of blood pressure	
poorly	bind strongly	(cyclo 31-34)[Ac-Pro^4, D-Phe^12, Nle^21,38, Glu^31, Lys^34]-oCRF(4-41) [Example 2]	strongly stimulates	very significant lowering of blood pressure	
only very weakly	binds strongly	(cyclo 31-34)[Ac-Pro^4, D-Phe^12, Nle^21,38, Glu^31, Lys^34]-porcine CRF(4-41) [Example 3 C]	stimulates	very significant lowering of blood pressure	
